Data: patent US9464082B2, “Aryl and arylalkyl substituted pyrazolyl and pyrimidinyl tricyclic enones as antioxidant inflammation modulators” (AbbVie Inc., priority 2014, dated 2016)

System: IFNγ-Induced NO Production
Assay: Nitric Oxide Suppression Assay (Suppression of IFNγ-Induced NO Production)
Format: cell-based
Conditions: RAW264.7; RAW 264.7 mouse macrophage cells; 2 hour pre-treatment with compound (3 μM to 0.3 nM, 10 point curve); 20 ng/mL interferon gamma, ~18 hour; Griess detection; n=2-3 in duplicates
Method: RAW 264.7, a mouse macrophage cell line, was obtained from American Type Culture Collection (Manassas Va.) and maintained in the log phase of growth in Dulbecco's Modified Eagle's Medium (DMEM), 10% heat inactivated fetal calf serum and 100 units/mL antibiotic-antimycotic (AA). Cells were cultured and maintained in a humidified incubator at 37° C. under 5% CO2 and 95% air. Cells were sub-cultured every 3 days by scraping and were not used beyond passage 20. All cell culture supplies were obtained from Life Technologies (Grand Island, N.Y.).
RAW 264.7 cells were plated 1 day in advance of experiment at a concentration of 80,000 cells/well onto CellBIND® 96 well plates (Corning, N.Y.) in a total volume of 100 μL. The next day, pre-treat cells with compounds (from 3 μM to 0.3 nM serially diluted in a 10 point curve) from a 10× stock by adding 10 μL per well in complete DMEM media containing 10% fetal calf serum. The plates were centrifuged for 3 minutes at 400×g at room temperature followed by 2 hour incubation at 37° C. The cells were then incubated overnight at 37° C. with 10 μL of the insult, interferon gamma (R&D Systems, Minneapolis, Minn.), from a 10× stock for a final concentration of 20 ng/mL. The plates were centrifuged for 3 minutes at 400×g at room temperature followed by ˜18 hour incubation at 37° C. The following day, transfer 50 μL cell culture supernatant from each well into a clear bottom 96 well plate and follow the instructions from Promega's Griess Detection Kit #G2930 (Madison, Wis.) which involves the addition of 50 μL of the provided sulfanilamide solution for a 5-10 minute incubation at room temperature. Next add 50 μL of the provided N-1-napthylethylenediamine dihydrochloride (NED) solution for a 5-10 minute incubation at room temperature and protected from light. If any air bubbles were introduced into the well, the plates need to be centrifuged for 5 minutes at 400×g at room temperature to avoid interference with absorbance readings. The plates were read for absorbance within 30 minutes with a filter between 520 nm and 550 nm.
For the ability of compounds to suppress the increase in nitric oxide release, the percent maximal intensity of nitric oxide detected in each well was normalized to that induced by the peak value for 20 ng/mL of interferon gamma alone and plotted against the compound concentration to calculate IC50 values and to control for plate-to-plate variability. Concentration-response data were analyzed using GraphPad Prism (San Diego, Calif.); the IC50 values were derived from a single curve fit to the mean data of n=2-3, in duplicates.
All compounds were dissolved in dimethyl sulfoxide at 10 mM stock solutions and tested at a concentration that the dimethyl sulfoxide levels never exceeded 1%.

Row | SMILES | IC50 [nM]
1 | COc1nc(Nc2ccc(Br)cc2)nc2c1CC[C@H]1[C@H](C)C(=O)C(C#N)=C[C@]21c1ccccc1 [Example 15, (6aS,7S,10aR)-2-[(4-bromophenyl)amino]-4-methoxy-7-methyl-8-oxo-10a-phenyl-5,6,6a,7,8,10a-hexahydrobenzo[h]quinazoline-9-carbonitrile] | 30
2 | C[C@@H]1C(=O)C(C#N)=C[C@]2(c3cccc(C(=O)O)c3)c3ncncc3CC[C@@H]12 [Example 60, 3-[(6aS,7S,10aR)-9-cyano-7-methyl-8-oxo-6,6a,7,8-tetrahydrobenzo[h]quinazolin-10a(5H)-yl]benzoic acid] | > 3000
3 | C[C@@H]1C(=O)C(C#N)=C[C@]2(c3cccc(C(N)=O)c3)c3ncncc3CC[C@@H]12 [Example 61, 3-[(6aS,7S,10aR)-9-cyano-7-methyl-8-oxo-6,6a,7,8-tetrahydrobenzo[h]quinazolin-10a(5H)-yl]benzamide] | 591
4 | C[C@@H]1C(=O)C(C#N)=C[C@]2(c3ccc(OCc4ccccc4)cc3)c3ncncc3CC[C@@H]12 [Example 120, (6aS,7S,10aR)-10a-[4-(benzyloxy)phenyl]-7-methyl-8-oxo-5,6,6a,7,8,10a-hexahydrobenzo[h]quinazoline-9-carbonitrile] | 5.44
5 | C[C@@H]1C(=O)C(C#N)=C[C@]2(c3ccccc3)c3n[nH]c(-c4cnn(C)c4)c3CC[C@@H]12 [Example 89, (5aS,6S,9aR)-6-methyl-3-(1-methyl-1H-pyrazol-4-yl)-7-oxo-9a-phenyl-4,5,5a,6,7,9a-hexahydro-2H-benzo[g]indazole-8-carbonitrile] | 8.18
6 | C[C@@H]1C(=O)C(C#N)=C[C@]2(c3ccccc3)c3nn(C)c(-c4cccc(-c5ccnnc5)c4)c3CC[C@@H]12 [Example 151, (5aS,6S,9aR)-2,6-dimethyl-7-oxo-9a-phenyl-3-[3-(pyridazin-4-yl)phenyl]-4,5,5a,6,7,9a-hexahydro-2H-benzo[g]indazole-8-carbonitrile] | 6.81
7 | COc1ccc([C@]23C=C(C#N)C(=O)[C@@H](C)[C@@H]2CCc2c(-c4cncnc4)nc(C)nc23)cc1 [Example 67, (6aS,7S,10aR)-10a-(4-methoxyphenyl)-2,7-dimethyl-8-oxo-4-(pyrimidin-5-yl)-5,6,6a,7,8,10a-hexahydrobenzo[h]quinazoline-9-carbonitrile] | 21.8
8 | C[C@@H]1C(=O)C(C#N)=C[C@]2(c3ccccc3)c3nn(C)c(-c4cccc(-c5cccc(NS(C)(=O)=O)c5)c4)c3CC[C@@H]12 [Example 150, N-{3′-[(5aS,6S,9aR)-8-cyano-2,6-dimethyl-7-oxo-9a-phenyl-4,5,5a,6,7,9a-hexahydro-2H-benzo[g]indazol-3-yl]biphenyl-3-yl}methanesulfonamide] | 2.26
9 | Cc1nc(-c2cccc3cn[nH]c23)c2c(n1)[C@@]1(c3ccc(F)cc3)C=C(C#N)C(=O)[C@@H](C)[C@@H]1CC2 [Example 93, (6aS,7S,10aR)-10a-(4-fluorophenyl)-4-(1H-indazol-7-yl)-2,7-dimethyl-8-oxo-5,6,6a,7,8,10a-hexahydrobenzo[h]quinazoline-9-carbonitrile] | 7.27
10 | C[C@@H]1C(=O)C(C#N)=C[C@]2(c3ccccc3)c3nc(C(C)(C)C)ncc3CC[C@@H]12 [Example 85, (6aS,7S,10aR)-2-tert-butyl-7-methyl-8-oxo-10a-phenyl-5,6,6a,7,8,10a-hexahydrobenzo[h]quinazoline-9-carbonitrile] | 33.8
11 | COC(=O)c1cccc([C@]23C=C(C#N)C(=O)[C@@H](C)[C@@H]2CCc2cncnc23)c1 [Example 59, methyl 3-[(6aS,7S,10aR)-9-cyano-7-methyl-8-oxo-6,6a,7,8-tetrahydrobenzo[h]quinazolin-10a(5H)-yl]benzoate] | 6.53
12 | COc1ccc([C@]23C=C(C#N)C(=O)[C@@H](C)[C@@H]2CCc2c(-c4cncn4C)nc(C)nc23)cc1 [Example 174, (6aS,7S,10aR)-10a-(4-methoxyphenyl)-2,7-dimethyl-4-(1-methyl-1H-imidazol-5-yl)-8-oxo-5,6,6a,7,8,10a-hexahydrobenzo[h]quinazoline-9-carbonitrile] | 1.9
13 | Cc1nc(-c2ccc(O)cc2)c2c(n1)[C@@]1(c3ccccc3)C=C(C#N)C(=O)[C@@H](C)[C@@H]1CC2 [Example 108, (6aS,7S,10aR)-4-(4-hydroxyphenyl)-2,7-dimethyl-8-oxo-10a-phenyl-5,6,6a,7,8,10a-hexahydrobenzo[h]quinazoline-9-carbonitrile] | 3.63
14 | C[C@@H]1C(=O)C(C#N)=C[C@]2(c3ccccc3)c3nc(-c4ccc(C(=O)N(C)C)cc4)ncc3CC[C@@H]12 [Example 138, 4-[(6aS,7S,10aR)-9-cyano-7-methyl-8-oxo-10a-phenyl-5,6,6a,7,8,10a-hexahydrobenzo[h]quinazolin-2-yl]-N,N-dimethylbenzamide] | 5.26
15 | Cc1nc(-c2ccc(O)nc2)c2c(n1)[C@@]1(c3ccccc3)C=C(C#N)C(=O)[C@@H](C)[C@@H]1CC2 [Example 133, (6aS,7S,10aR)-4-(6-hydroxypyridin-3-yl)-2,7-dimethyl-8-oxo-10a-phenyl-5,6,6a,7,8,10a-hexahydrobenzo[h]quinazoline-9-carbonitrile] | 311
16 | Cc1nc(-c2cccc(CCC(=O)O)c2)c2c(n1)[C@@]1(c3ccccc3)C=C(C#N)C(=O)[C@@H](C)[C@@H]1CC2 [Example 155, 3-{3-[(6aS,7S,10aR)-9-cyano-2,7-dimethyl-8-oxo-10a-phenyl-5,6,6a,7,8,10a-hexahydrobenzo[h]quinazolin-4-yl]phenyl}propanoic acid] | 107
17 | COC(=O)c1ccc([C@]23C=C(C#N)C(=O)[C@@H](C)[C@@H]2CCc2c(-c4c(Br)ncn4C)nc(C)nc23)cc1 [Example 176, methyl 4-[(6aS,7S,10aR)-4-(4-bromo-1-methyl-1H-imidazol-5-yl)-9-cyano-2,7-dimethyl-8-oxo-6,6a,7,8-tetrahydrobenzo[h]quinazolin-10a(5H)-yl]benzoate] | 12.8
18 | C[C@@H]1C(=O)C(C#N)=C[C@]2(c3ccccc3)c3nn(C)c(-c4ccc(-c5ccncc5)cc4)c3CC[C@@H]12 [Example 143, (5aS,6S,9aR)-2,6-dimethyl-7-oxo-9a-phenyl-3-[4-(pyridin-4-yl)phenyl]-4,5,5a,6,7,9a-hexahydro-2H-benzo[g]indazole-8-carbonitrile] | 69.3
19 | C[C@@H]1C(=O)C(C#N)=C[C@]2(c3ccccc3)c3nc(Nc4ccccc4)ncc3CC[C@@H]12 (racemic) [Example 9, rac-(6aS,7S,10aR)-2-anilino-7-methyl-8-oxo-10a-phenyl-5,6,6a,7,8,10a-hexahydrobenzo[h]quinazoline-9-carbonitrile] | 5.99
20 | Cc1nc(-c2cncn2C)c2c(n1)[C@@]1(c3ccccc3)C=C(C#N)C(=O)[C@@H](C)[C@@H]1CC2 [Example 17, (6aS,7S,10aR)-2,7-dimethyl-4-(1-methyl-1H-imidazol-5-yl)-8-oxo-10a-phenyl-5,6,6a,7,8,10a-hexahydrobenzo[h]quinazoline-9-carbonitrile] | 3.25
21 | C[C@@H]1C(=O)C(C#N)=C[C@]2(c3ccccc3)c3n[nH]c(-c4cccc(CCO)c4)c3CC[C@@H]12 [Example 116, (5aS,6S,9aR)-3-[3-(2-hydroxyethyl)phenyl]-6-methyl-7-oxo-9a-phenyl-4,5,5a,6,7,9a-hexahydro-2H-benzo[g]indazole-8-carbonitrile] | 9.25
